# Experiments:
# Mus musculus [1] = species: Mus musculus; experiment: Compound was evaluated for antitumor activity against L1210 leukemia in mice and percent increase in life span was determined.; assay type: functional
# Mus musculus [2] = experiment: Compound was evaluated for antitumor activity against L1210 leukemia in mice and LD10 was determined 24 hour after subcutaneous administration in 10 E 6 cells implanted intraperitoneally.; assay type: ADME, organism-based; conditions: in vivo, sc
# Mus musculus [3] = species: Mus musculus; experiment: Compound was evaluated for antitumor activity against L1210 leukemia in mice and median survival time was determined at ten mice per run.; assay type: functional
# Mus musculus [4] = species: Mus musculus; experiment: Compound was evaluated for antitumor activity against L1210 leukemia in mice and median survival time was determined at ten animals per run.; assay type: functional
smiles,measurement,setting,value
CCCC(Cc1ccc2nc(N)nc(N)c2n1)c1ccc(C(=O)NC(CCC(=O)O)C(=O)O)cc1 (stereo not drawn),ILS,Mus musculus [1],176%
same,LD10,Mus musculus [2],6 mg/kg
CC(Cc1ccc2nc(N)nc(N)c2n1)c1ccc(C(=O)NC(CCC(=O)O)C(=O)O)cc1 (stereo not drawn),ILS,Mus musculus [1],203%
same,LD10,Mus musculus [2],0.6 mg/kg
same,MST,Mus musculus [3],21.5 days
CCC(Cc1ccc2nc(N)nc(N)c2n1)c1ccc(C(=O)NC(CCC(=O)O)C(=O)O)cc1 (stereo not drawn),ILS,Mus musculus [1],235%
same,MST,Mus musculus [4],23.8 days
same,LD10,Mus musculus [2],1.5 mg/kg
Nc1nc(N)c2nc(CCc3ccc(C(=O)NC(CCC(=O)O)C(=O)O)cc3)ccc2n1 (stereo not drawn),ILS,Mus musculus [1],189%
same,LD10,Mus musculus [2],0.75 mg/kg
CN(Cc1cnc2nc(N)nc(N)c2n1)c1ccc(C(=O)N[C@@H](CCC(=O)O)C(=O)O)cc1 [METHOTREXATE],ILS,Mus musculus [1],187%
same,MST,Mus musculus [4],20.4 days
same,LD10,Mus musculus [2],15 mg/kg

# From ChEMBL document CHEMBL1122786, “Synthesis and antifolate properties of 10-alkyl-8,10-dideazaminopterins” (J Med Chem, 1984)
